≈ marks a conversion by molar mass, not a printed value. Read-outs that look alike come from different tables or passages of the source.
Assays:
MRSA [1] = test: antibacterial activity of antibiotics alone and in the presence of apigenin (4 μg/ml), MRSA; type: cell-based, methicillin-resistant Staphylococcus aureus; settings: for MIC50 / MIC: MRSA
Description: (§1) The screening of the present invention may be carried out according to the agar plate dilution method designated by the Japan Society of Chemotherapy (Chemotherapy 29(1), 76-79 (1981)). Mueller-Hinton agar base semi-synthetic medium may be used for a plate culture medium for a sensitivity test together with an inoculating bacteria solution which may be prepared by culturing bacteria to be tested at 37° C. for 20 hours diluted with 8.5% by isotonic sodium chloride solution to 10^6 CFU/ml. Diluted β-lactam solutions are prepared by two times serial dilution. 1 ml of the diluted β-lactam solution and 1 ml of a predetermined concentration of a sample to be tested are added to 8 ml of the plate culture medium for a sensitivity test. To the resultant plate culture medium for sensitivity test, the bacteria are inoculated using a microplanter (SAKUMASEISAKUSYO Co.), cultured for 20 hours at 37° C. followed by assessing for a minimum inhibition concentration (MIC).
(D) Then use of 4 μg/ml of apigenin and other antibiotics at the same time was studied. The antibiotics are penicillin , ampicillin, cephalothin, cefoxitin, cefuroxime, cefotaxime, vancomycin, streptomycin, chloramphenicol, kanamycin, erythromycin, nalixic acid and tetracycline.

MRSA No. 5 = test: effect of flavone on antibacterial activity of antibiotics against MRSA No. 5 in bouillon (broth microdilution); type: cell-based, methicillin-resistant Staphylococcus aureus; settings: for MIC: Staphylococcus aureus, MRSA, 20 h; for inhibitory effect on resistance of MRSA No.5 (in words): in the presence of flavone 0.5 mM
Description: Alternatively, the screening of the present invention may be carried out according to the broth microdilution method designated by the Japan Society of Chemotherapy (Chemotherapy 38(1), 102-105 (1990)). Muellar-Hinton broth is used as a culture medium for the sensitivity test, and 50 mg/ml of calcium(Ca) ion, 25 mg/ml of magnesium(Mg) ion, and 2% sodium chloride (NaCl) are added thereto. An inoculating bacteria solution may be prepared by culturing bacteria to be tested in Mueller-Hinton broth at 37° C. for 20 hours and diluting with Mueller-Hinton broth to 10^5 CFU/ml final concentration of inoculating bacteria. Diluted β-lactam solution is prepared by two times serial dilution series. 10 μl of the diluted β-lactam solution and 10 μl of a predetermined concentration of a sample of bacteria to be tested are added to mix with 80 μl of the culture medium for the sensitivity test. To the resultant plate culture medium for sensitivity test, the inoculating bacteria are added and culturing is carried out for 20 hours at 37° C. and then assessment for a minimum inhibition concentration (MIC) is carried out. A minimum inhibition concentration means the minimum concentration of β-lactam at which growth of bacteria is not recognized by the naked eye.
(G) Antibacterial activity of 6 β-lactams, that is, cephalothin, cefuroxime, cefotaxime, cefoxitin, streptomycin and vancomycin, against MRSA in the presence of 0.5 mM flavone was studied in bouillon.
Muellar-Hinton broth was used as a culture medium for the sensitivity test, and 50 mg/ml of calcium (Ca) ion, 25 mg/ml of maqnesium (Mg) ion, 2% sodium chloride (NaCl) were added thereto. An inoculating bacteria solution was prepared by culturing bacteria to be tested with Mueller-Hinton broth at 37° C. for 20 hours and diluting with Mueller-Hinton broth to 10^5 CFU/ml final concentration of inoculating bacteria. Diluted β-lactam solutions were prepared in two times serial dilutions starting from 10 mM. Ten microliters of the diluted β-lactam solution and 10 μl of 5 mM of flavone were mixed with 80 μl of the culture medium for the sensitivity test in a microplate having U-shaped wells and samples of bacteria to be tested were added thereto. The mixture was cultured 20 hours at 37° C. and then assessed for minimum inhibition concentration (MIC). Minimum inhibition concentration means minimum concentration of a β-lactum at which growth of bacteria is inhibited to the extent that bacteria is not recognized by the naked eye.

MRSA [2] = test: antibacterial activity (MIC) by agar plate dilution method, MRSA strains; type: cell-based, methicillin-resistant Staphylococcus aureus; settings: Staphylococcus aureus, 20 h, MRSA (20 strains); for MIC50: read-out: MIC50
Description: as §1
(§2) (A) Antibacterial activities of ether extract from Scutellaria barbata, SB-1 (isolated from Scutellaria barbata), apigenin (authentic sample) and luteolin (authentic sample) were shown in Table 1.
(§3) Flavones were dissolved in methanol and the others were dissolved in 0.1 N NaOH. A method for determination of antibacterial activity is, as described above, an agar plate dilution method designated by the Japan Society of Chemotherapy (Chemotherapy 29(1), 76-79 (1981)) to determine MIC value. MIC80 is a concentration at which a strain is prohibited to proliferate by 80% and MIC50 is a concentration at which a strain is prohibited to proliferate by 50%.

MRSA and MSSA = test: antibacterial activity (MIC) by agar plate dilution method, MRSA and MSSA strains together; type: cell-based, Staphylococcus aureus; settings: MRSA and MSSA; for antibacterial activity (in words): Table 2; for MIC: Staphylococcus aureus, 20 h, "in each case", read-out: MIC values (text summary of Table 2)
Description: as §1, with “(MIC). […]” for “(MIC).”
Antibacterial activity is determined for flavones including flavone, flavonol, flavanone, isoflavone, catechin and calchone, as follows:
as §3

MSSA = test: antibacterial activity (MIC) by agar plate dilution method, MSSA strains; type: cell-based, Methicillin-sensitive Staphylooccus aureus; settings: Staphylococcus aureus, 20 h, MSSA (7 strains); for MIC50: read-out: MIC50
Description: as §1, §2, §3

[3] = Staphylococcus aureus, 20 h, Antibiotics alone, read-out: MIC50
[4] = Staphylococcus aureus, 20 h, antibiotic with Apigenin (4 μg/ml), read-out: MIC50
[5] = Concentration of flavone 0 mM, read-out: MIC
[6] = Concentration of flavone 0.5 mM, read-out: MIC
[7] = Staphylococcus aureus, 20 h, Antibiotics alone
[8] = Staphylococcus aureus, 20 h, antibiotic with Apigenin (4 μg/ml)
[9] = Concentration of flavone 0.5 mM

SMILES | MIC50 (MRSA [1]; [3]) [µg/mL] | MIC50 (MRSA [1]; [4]) [µg/mL] | MIC (MRSA No. 5; [5]) [µM] | MIC (MRSA No. 5; [6]) [µM] | inhibitory effect on resistance of MRSA No.5 (in words) (MRSA No. 5) | MIC (MRSA [1]; [7]) [µg/mL] | MIC50 (MRSA [1]; [7]) [µg/mL] | MIC (MRSA [1]; [8]) [µg/mL] | MIC50 (MRSA [1]; [8]) [µg/mL] | MIC (MRSA No. 5; [9]) [µM] | further results
CO[C@@]1(NC(=O)Cc2cccs2)C(=O)N2C(C(=O)O)=C(COC(N)=O)CS[C@@H]21 [Cefoxitin, cefoxitin] | 250 | 31.3 | 1000 (≈ 427 µg/mL) | < 0.98 | showed the inhibitory effect remarkably | – | – | – | – | – | MIC (MRSA [1]; Staphylococcus aureus, 20 h, antibiotic with Apigenin (4 μg/ml), read-out: MIC): 2 to 125 µg/mL; inhibition of β-lactam resistant MRSA / improvement of antibacterial effect with apigenin (in words) (MRSA [1]; apigenin 4 μg/ml or less than its MIC): inhibited β-lactam resistant MRSA
CC(=O)OCC1=C(C(=O)O)N2C(=O)[C@@H](NC(=O)Cc3cccs3)[C@H]2SC1 [Cephalothin, cephalothin] | – | – | – | – | showed inhibitory effect on resistance of MRSA No.5 | 0.98 to 250 | 125 | 0.98 to 250 | 125 | 1.95 (≈ 0.773 µg/mL) | MIC (MRSA No. 5; Concentration of flavone 0 mM): 500 µM (≈ 198 µg/mL)
O=C1C[C@@H](c2ccc(O)c(O)c2)Oc2cc(O)cc(O)c21 [Eriodictyol, eriodictyol] | – | – | – | – | – | – | – | – | – | – | MIC50 (MRSA [2]): 250 µg/mL (≈ 867 µM); MIC (MRSA [2]; MRSA, range over strains, read-out: MIC): 250 µg/mL (≈ 867 µM); antibacterial activity (in words) (MRSA and MSSA): showed antibacterial activity; MIC (MRSA and MSSA): 250 µg/mL (≈ 867 µM); MIC50 (MSSA): 250 µg/mL (≈ 867 µM); MIC (MSSA; MSSA, range over strains, read-out: MIC): 250 µg/mL (≈ 867 µM)
O=c1c(O)c(-c2ccc(O)cc2)oc2cc(O)cc(O)c12 [Kaempferol, kaempferol] | – | – | – | – | – | – | – | – | – | – | MIC50 (MRSA [2]): 250 µg/mL (≈ 873 µM); antibacterial activity (in words) (MRSA and MSSA): showed antibacterial activity; antibacterial activity (in words) (MRSA and MSSA; listed as kaemferol): showed activity; MIC (MRSA and MSSA): 250 µg/mL (≈ 873 µM); MIC50 (MSSA): 250 µg/mL (≈ 873 µM)
Cc1onc(-c2ccccc2)c1C(=O)N[C@@H]1C(=O)N2[C@@H]1SC(C)(C)[C@@H]2C(=O)O [Oxacillin, oxacillin] | – | – | – | – | – | – | 250 | – | 250 | 15.6 (≈ 6.26 µg/mL) | MIC (MRSA No. 5; Concentration of flavone 0 mM): 1000 µM (≈ 401 µg/mL)
[H]/N=C(/N)N[C@H]1[C@H](O)[C@@H](O)[C@H](O[C@@H]2O[C@@H](C)[C@](O)(C=O)[C@H]2O[C@@H]2O[C@@H](CO)[C@H](O)[C@@H](O)[C@@H]2NC)[C@@H](N/C(N)=N\[H])[C@@H]1O [Streptomycin, streptomycin] | – | – | – | – | appeared not to be showed | 7.8 to 15.6 | 7.8 | 2 to 15.6 | 7.6 | < 0.98 | –
CN(C)C1C(=O)C(C(N)=O)=C(O)C2(O)C(=O)C3=C(O)c4c(O)cccc4C(C)(O)C3CC12 (stereo not shown) [Tetracycline, tetracycline] | – | – | – | – | – | – | 0.98 | 0.49 to 250 | 0.98 | – | MIC (MRSA [1]; Antibiotics alone): 0.24 to 250 µg/mL
CN[C@H](CC(C)C)C(=O)N[C@H]1C(=O)N[C@@H](CC(N)=O)C(=O)N[C@H]2C(=O)N[C@H]3C(=O)N[C@H](C(=O)N[C@H](C(=O)O)c4cc(O)cc(O)c4-c4cc3ccc4O)[C@H](O)c3ccc(c(Cl)c3)Oc3cc2cc(c3O[C@@H]2O[C@H](CO)[C@@H](O)[C@H](O)[C@H]2O[C@H]2C[C@](C)(N)[C@H](O)[C@H](C)O2)Oc2ccc(cc2Cl)[C@H]1O [Vancomycin, vancomycin] | – | – | – | – | appeared not to be showed | 0.98 to 2 | 0.98 | 0.49 to 0.98 | 0.49 | < 0.98 | –

Continued, in another order:

MIC50 (MRSA [1]; [3]) [µg/mL] | MIC50 (MRSA [1]; [4]) [µg/mL] | MIC (MRSA No. 5; [5]) [µM] | MIC (MRSA No. 5; [6]) [µM] | SMILES | inhibitory effect on resistance of MRSA No.5 (in words) (MRSA No. 5) | MIC (MRSA [1]; [7]) [µg/mL] | MIC50 (MRSA [1]; [7]) [µg/mL] | MIC (MRSA [1]; [8]) [µg/mL] | MIC50 (MRSA [1]; [8]) [µg/mL] | MIC (MRSA No. 5; [9]) [µM] | further results
> 250 | > 250 | 1000 (≈ 455 µg/mL) | 7.8 (≈ 3.55 µg/mL) | CO/N=C(\C(=O)N[C@@H]1C(=O)N2C(C(=O)O)=C(COC(C)=O)CS[C@H]12)c1csc(N)n1 [Cefotaxime, cefotaxime] | showed inhibitory effect on resistance of MRSA No.5 | – | – | – | – | – | –
> 250 | > 250 | > 1000 | 7.8 (≈ 3.31 µg/mL) | CO/N=C(\C(=O)N[C@@H]1C(=O)N2C(C(=O)O)=C(COC(N)=O)CS[C@H]12)c1ccco1 [Cefuroxime, cefuroxime] | showed inhibitory effect on resistance of MRSA No.5 | – | – | – | – | – | –
